Test results: paper PMC10693528, “A high-throughput metabolomics in vitro platform for the characterization of hepatotoxicity” (Cell Biology and Toxicology, 2023)

Test system: HepG2 cells
Assay: LC-MS/MS targeted intracellular metabolomics
Assay type: cell-based, human
Details: 48 h
Method in brief: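 Metabolites extracted in-plate from HepG2 cells with 80% isopropanol and analysed by RP and HILIC LC-MS/MS in positive and negative mode. Data normalised to lyophilised untreated HepG2 reference samples and to each sample's median across 221 metabolites. Treated versus control compared by Welch t test on log-transformed data.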

[1] = Suppl Fig 10, C3 (C2 for Aroclor)
[2] = Suppl Fig 10, C3 (C2 for Aroclor), first of two lines with this name
[3] = Suppl Fig 10, C3 (C2 for Aroclor), second of two lines with this name
[4] = Suppl Fig 9, C3 (EC15 ATP), Bezafibrate lines = Plates 1-6 in order

CCC(CC)Nc1c([N+](=O)[O-])cc(C)c(C)c1[N+](=O)[O-] [Pendimethalin]
Carnitine level vs controls [1]: 0.76
Ceramide (d16:1.C24:0) level vs controls [1]: 1.35
Ceramide (d17:1.C24:0) level vs controls [1]: 1.40
Ceramide (d18:1.C20:0) level vs controls [1]: 0.81
Ceramide (d18:1.C22:1) level vs controls [1]: 0.43
Ceramide (d18:1.C24:1) level vs controls [1]: 0.54
Ceramide (d18:2.C16:0) level vs controls [1]: 2.06
Ceramide (d18:2.C23:0) level vs controls [1]: 1.14
Ceramide (d18:2.C24:0) level vs controls [1]: 1.87
Ceramide (d18:2.C24:1) level vs controls [1]: 1.17
Choline plasmalogen (C36:4) level vs controls [1]: 0.63
Choline plasmalogen (C36:5) level vs controls [1]: 0.68
Cysteinylglycine level vs controls [1]: 1.14
Flavin adenine dinucleotide (FAD) level vs controls [1]: 1.14
Glutathione (GSH) level vs controls [1]: 1.12
Hexanoylcarnitine level vs controls [1]: 0.69
Isopentenyl pyrophosphate (IPP) level vs controls [1]: 2.79
Lysophosphatidylcholine (C14:0) level vs controls [1]: 2.28
Lysophosphatidylcholine (C16:0) level vs controls [1]: 2.37
Lysophosphatidylcholine (C20:0) level vs controls [1]: 2.37
Lysophosphatidylcholine (C20:1) level vs controls [1]: 1.47
Lysophosphatidylcholine (C20:4) level vs controls [1]: 2.32
Lysophosphatidylcholine (C22:0) level vs controls [1]: 3.44
Lysophosphatidylcholine (C24:0) level vs controls [1]: 4.49
Lysophosphatidylcholine (C24:1) level vs controls [1]: 3.59
Lysophosphatidylethanolamine (C16:0) level vs controls [1]: 1.81
Lysophosphatidylethanolamine (C18:0) level vs controls [1]: 2.07
N-Acetylglucosamine level vs controls [1]: 0.93
N-Acetylserine level vs controls [1]: 1.47
O-Acetylcarnitine level vs controls [1]: 1.02
Pantothenic acid level vs controls [1]: 0.78
Phosphatidylcholine (C32:0) level vs controls [1]: 1.93
Phosphatidylcholine (C34:0) level vs controls [1]: 1.83
Phosphatidylcholine (C34:2) level vs controls [1]: 0.64
Phosphatidylcholine (C34:3) level vs controls [1]: 0.79
Phosphatidylcholine (C36:0) level vs controls [1]: 2.49
Phosphatidylcholine (C36:1) level vs controls [1]: 0.93
Phosphatidylcholine (C36:2) level vs controls [1]: 0.52
Phosphatidylcholine (C36:3) level vs controls [1]: 0.73
Phosphatidylcholine (C36:4) level vs controls [1]: 1.10
Phosphatidylcholine (C38:6) level vs controls [1]: 1.15
Phosphatidylethanolamine (C32:0) level vs controls [1]: 3.04
Phosphatidylethanolamine (C34:0) level vs controls [1]: 2.78
Phosphatidylethanolamine (C34:1) level vs controls [1]: 1.48
Phosphatidylethanolamine (C34:2) level vs controls [1]: 0.68
Phosphatidylethanolamine (C36:0) level vs controls [1]: 3.98
Phosphatidylethanolamine (C36:1) level vs controls [1]: 1.46
Phosphatidylethanolamine (C36:3) level vs controls [1]: 0.82
Phosphatidylethanolamine (C38:5) level vs controls [1]: 0.79
Phosphatidylethanolamine (C40:7) level vs controls [1]: 0.57
Proline level vs controls [1]: 0.89
Propionylcarnitine level vs controls [1]: 0.65
Sphingomyelin (d32:1) level vs controls [1]: 0.92
Sphingomyelin (d35:1) level vs controls [1]: 1.07
Sphingomyelin (d38:2) level vs controls [1]: 0.76
Sphingomyelin (d40:2) level vs controls [1]: 0.93
Sphingomyelin (d41:2) level vs controls [1]: 0.79
Sphingomyelin (d42:2) level vs controls [1]: 0.73
Triacylglycerol (C30:0.C18:1) level vs controls [1]: 0.81
Triacylglycerol (C32:0.C16:1) level vs controls [1]: 0.66
Triacylglycerol (C32:1.C16:1) level vs controls [1]: 0.58
Triacylglycerol (C34:0.C18:1) level vs controls [1]: 0.96
Triacylglycerol (C34:1.C16:0) level vs controls [1]: 0.79
Triacylglycerol (C34:1.C18:1) level vs controls [1]: 0.71
Triacylglycerol (C34:2.C18:0) level vs controls [1]: 0.87
Triacylglycerol (C34:2.C18:1) level vs controls [1]: 0.44
Triacylglycerol (C36:1.C18:0) level vs controls [1]: 0.86
Triacylglycerol (C36:1.C18:1) level vs controls [1]: 0.65
Triacylglycerol (C36:1.C18:2) level vs controls [1]: 0.83
Triacylglycerol (C36:2.C18:1) level vs controls [1]: 0.49
Triacylglycerol (C36:3.C18:1) level vs controls [1]: 0.78
Tyrosine level vs controls [1]: 1.14
myo-Inositol-2-phosphate level vs controls [1]: 0.76
Sphingomyelin (d34:2) level vs controls [2]: 1.11
Sphingomyelin (d34:2) level vs controls [3]: 1.27

Cc1cccc(Nc2cc(Cl)nc(SCC(=O)O)n2)c1C [Wy-14643]
2'-Deoxycytidine level vs controls [4]: 0.75
5-Hydroxytryptophan level vs controls [4]: 0.85
Carnitine level vs controls [4]: 0.99
Ceramide (d18:1.C20:0) level vs controls [4]: 0.66
Ceramide (d18:1.C24:1) level vs controls [4]: 0.92
Ceramide (d18:1.C24:2) level vs controls [4]: 0.71
Ceramide (d18:2.C24:1) level vs controls [4]: 0.97
Choline plasmalogen (C36:4) level vs controls [4]: 1.00
Choline plasmalogen (C36:5) level vs controls [4]: 1.03
Creatine level vs controls [4]: 0.85
Glycerol-3-phosphate level vs controls [4]: 0.72
Hexanoylcarnitine level vs controls [4]: 0.93
Ketoleucine level vs controls [4]: 0.86
Lysophosphatidylcholine (C14:0) level vs controls [4]: 1.51
Lysophosphatidylcholine (C16:0) level vs controls [4]: 1.26
Lysophosphatidylcholine (C16:1) level vs controls [4]: 1.06
Lysophosphatidylcholine (C20:4) level vs controls [4]: 1.28
Lysophosphatidylcholine (C24:0) level vs controls [4]: 1.50
Lysophosphatidylcholine (C24:1) level vs controls [4]: 1.20
Lysophosphatidylethanolamine (C16:0) level vs controls [4]: 1.18
Lysophosphatidylethanolamine (C18:0) level vs controls [4]: 1.26
Lysophosphatidylethanolamine (C18:1) level vs controls [4]: 1.12
N-Acetylaspartate level vs controls [4]: 1.22
Pantothenic acid level vs controls [4]: 0.74
Phosphatidylcholine (C32:0) level vs controls [4]: 0.81
Phosphatidylcholine (C34:1) level vs controls [4]: 0.91
Phosphatidylcholine (C34:3) level vs controls [4]: 1.04
Phosphatidylcholine (C36:1) level vs controls [4]: 0.96
Phosphatidylcholine (C36:2) level vs controls [4]: 0.86
Phosphatidylcholine (C36:3) level vs controls [4]: 0.93
Phosphatidylcholine (C36:4) level vs controls [4]: 0.98
Phosphatidylcholine (C36:5) level vs controls [4]: 0.92
Phosphatidylethanolamine (C36:3) level vs controls [4]: 0.82
Phosphatidylethanolamine (C38:3) level vs controls [4]: 0.92
Phosphatidylethanolamine (C38:5) level vs controls [4]: 0.89
Phosphatidylethanolamine (C38:6) level vs controls [4]: 0.96
Phosphatidylethanolamine (C40:7) level vs controls [4]: 0.92
Phosphocholine level vs controls [4]: 0.91
Propionylcarnitine level vs controls [4]: 0.97
S-Adenosylhomocysteine level vs controls [4]: 1.03
Sphingomyelin (d32:2) level vs controls [4]: 0.79
Sphingomyelin (d33:1) level vs controls [4]: 1.13
Sphingomyelin (d34:0) level vs controls [4]: 1.04
Sphingomyelin (d35:1) level vs controls [4]: 0.99
Sphingomyelin (d36:1) level vs controls [4]: 0.90
Sphingomyelin (d36:2) level vs controls [4]: 0.97
Sphingomyelin (d37:1) level vs controls [4]: 0.81
Sphingomyelin (d38:1) level vs controls [4]: 0.84
Sphingomyelin (d38:2) level vs controls [4]: 0.74
Sphingomyelin (d39:1) level vs controls [4]: 0.94
Sphingomyelin (d40:2) level vs controls [4]: 0.81
Sphingomyelin (d41:2) level vs controls [4]: 0.79
Sphingomyelin (d42:2) level vs controls [4]: 0.79
Taurine level vs controls [4]: 0.97
Triacylglycerol (C34:1.C18:3) level vs controls [4]: 1.01
Triacylglycerol (C34:2.C18:0) level vs controls [4]: 1.14
Triacylglycerol (C34:2.C18:1) level vs controls [4]: 1.01
Triacylglycerol (C36:4.C16:0) level vs controls [4]: 1.09
Triacylglycerol (C36:4.C18:0) level vs controls [4]: 1.18

O=c1cc(-c2ccccc2)oc2ccc3ccccc3c12 [β-naphthoflavone]
Carnitine level vs controls [1]: 0.88
Ceramide (d16:1.C24:0) level vs controls [1]: 1.20
Ceramide (d17:1.C24:0) level vs controls [1]: 1.24
Ceramide (d18:1.C20:0) level vs controls [1]: 0.73
Ceramide (d18:1.C22:1) level vs controls [1]: 0.65
Ceramide (d18:1.C24:1) level vs controls [1]: 0.64
Ceramide (d18:2.C16:0) level vs controls [1]: 1.48
Ceramide (d18:2.C23:0) level vs controls [1]: 1.56
Ceramide (d18:2.C24:0) level vs controls [1]: 1.41
Ceramide (d18:2.C24:1) level vs controls [1]: 1.23
Choline plasmalogen (C36:4) level vs controls [1]: 0.82
Choline plasmalogen (C36:5) level vs controls [1]: 0.84
Cysteinylglycine level vs controls [1]: 3.16
Flavin adenine dinucleotide (FAD) level vs controls [1]: 1.63
Glutathione (GSH) level vs controls [1]: 2.59
Hexanoylcarnitine level vs controls [1]: 1.02
Isopentenyl pyrophosphate (IPP) level vs controls [1]: 2.43
Lysophosphatidylcholine (C14:0) level vs controls [1]: 1.48
Lysophosphatidylcholine (C16:0) level vs controls [1]: 2.15
Lysophosphatidylcholine (C20:0) level vs controls [1]: 2.34
Lysophosphatidylcholine (C20:1) level vs controls [1]: 2.23
Lysophosphatidylcholine (C20:4) level vs controls [1]: 1.68
Lysophosphatidylcholine (C22:0) level vs controls [1]: 1.99
Lysophosphatidylcholine (C24:0) level vs controls [1]: 2.67
Lysophosphatidylcholine (C24:1) level vs controls [1]: 2.34
Lysophosphatidylethanolamine (C16:0) level vs controls [1]: 1.77
Lysophosphatidylethanolamine (C18:0) level vs controls [1]: 2.25
N-Acetylglucosamine level vs controls [1]: 0.79
N-Acetylserine level vs controls [1]: 1.03
O-Acetylcarnitine level vs controls [1]: 0.87
Pantothenic acid level vs controls [1]: 0.96
Phosphatidylcholine (C32:0) level vs controls [1]: 1.16
Phosphatidylcholine (C34:0) level vs controls [1]: 1.39
Phosphatidylcholine (C34:2) level vs controls [1]: 0.77
Phosphatidylcholine (C34:3) level vs controls [1]: 0.60
Phosphatidylcholine (C36:0) level vs controls [1]: 1.62
Phosphatidylcholine (C36:1) level vs controls [1]: 1.21
Phosphatidylcholine (C36:2) level vs controls [1]: 0.80
Phosphatidylcholine (C36:3) level vs controls [1]: 0.87
Phosphatidylcholine (C36:4) level vs controls [1]: 1.08
Phosphatidylcholine (C38:6) level vs controls [1]: 1.09
Phosphatidylethanolamine (C32:0) level vs controls [1]: 1.63
Phosphatidylethanolamine (C34:0) level vs controls [1]: 1.79
Phosphatidylethanolamine (C34:1) level vs controls [1]: 1.38
Phosphatidylethanolamine (C34:2) level vs controls [1]: 0.93
Phosphatidylethanolamine (C36:0) level vs controls [1]: 2.10
Phosphatidylethanolamine (C36:1) level vs controls [1]: 1.81
Phosphatidylethanolamine (C36:3) level vs controls [1]: 0.84
Phosphatidylethanolamine (C38:5) level vs controls [1]: 0.93
Phosphatidylethanolamine (C40:7) level vs controls [1]: 0.79
Proline level vs controls [1]: 0.64
Propionylcarnitine level vs controls [1]: 1.03
Sphingomyelin (d32:1) level vs controls [1]: 0.84
Sphingomyelin (d35:1) level vs controls [1]: 1.06
Sphingomyelin (d38:2) level vs controls [1]: 0.94
Sphingomyelin (d40:2) level vs controls [1]: 0.77
Sphingomyelin (d41:2) level vs controls [1]: 0.85
Sphingomyelin (d42:2) level vs controls [1]: 0.74
Triacylglycerol (C30:0.C18:1) level vs controls [1]: 0.36
Triacylglycerol (C32:0.C16:1) level vs controls [1]: 0.41
Triacylglycerol (C32:1.C16:1) level vs controls [1]: 0.26
Triacylglycerol (C34:0.C18:1) level vs controls [1]: 0.47
Triacylglycerol (C34:1.C16:0) level vs controls [1]: 0.39
Triacylglycerol (C34:1.C18:1) level vs controls [1]: 0.47
Triacylglycerol (C34:2.C18:0) level vs controls [1]: 0.40
Triacylglycerol (C34:2.C18:1) level vs controls [1]: 0.24
Triacylglycerol (C36:1.C18:0) level vs controls [1]: 0.46
Triacylglycerol (C36:1.C18:1) level vs controls [1]: 0.35
Triacylglycerol (C36:1.C18:2) level vs controls [1]: 0.46
Triacylglycerol (C36:2.C18:1) level vs controls [1]: 0.41
Triacylglycerol (C36:3.C18:1) level vs controls [1]: 0.38
Tyrosine level vs controls [1]: 1.14
myo-Inositol-2-phosphate level vs controls [1]: 0.65
Sphingomyelin (d34:2) level vs controls [2]: 1.05
Sphingomyelin (d34:2) level vs controls [3]: 1.07
